From PubChem BioAssay (NCI)
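Dose response: 5 concentrations. Exposure: 48 h. Format: 96-well plates. Endpoint: linear interpolation; highest concentration if not reached. Definition used: TGI = concentration required for complete inhibition of growth.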

Experiments:
Experiment in all cases: NCI-60 cell line screen, 48 h
U251 CNS = test system: U251 CNS
ACHN renal = test system: ACHN renal
K-562 leukemia = test system: K-562 leukemia
UO-31 renal = test system: UO-31 renal
MOLT-4 leukemia = test system: MOLT-4 leukemia
CCRF-CEM leukemia = test system: CCRF-CEM leukemia
CAKI-1 renal = test system: CAKI-1 renal
OVCAR-4 ovarian = test system: OVCAR-4 ovarian
SN12C renal = test system: SN12C renal
M14 melanoma = test system: M14 melanoma
A549 NSCLC = test system: A549 NSCLC
NCI-H522 lung = test system: NCI-H522 lung
UACC-62 melanoma = test system: UACC-62 melanoma
HCC-2998 colon = test system: HCC-2998 colon
EKVX NSCLC = test system: EKVX NSCLC
MALME-3M melanoma = test system: MALME-3M melanoma
SK-MEL-2 melanoma = test system: SK-MEL-2 melanoma
SF-268 CNS = test system: SF-268 CNS
A498 renal = test system: A498 renal
NCI-H460 lung = test system: NCI-H460 lung
786-0 renal = test system: 786-0 renal
DMS 114 small cell lung = test system: DMS 114 small cell lung
KM20L2 colon = test system: KM20L2 colon
COLO 205 colon = test system: COLO 205 colon
SF-539 CNS = test system: SF-539 CNS
SK-MEL-5 melanoma = test system: SK-MEL-5 melanoma
OVCAR-8 ovarian = test system: OVCAR-8 ovarian
HOP-62 NSCLC = test system: HOP-62 NSCLC
XF 498 CNS = test system: XF 498 CNS
HCT-116 colon = test system: HCT-116 colon
DMS 273 small cell lung = test system: DMS 273 small cell lung
NCI-H226 lung = test system: NCI-H226 lung
HT29 colon = test system: HT29 colon
RXF-631 renal = test system: RXF-631 renal
SF-295 CNS = test system: SF-295 CNS
HCT-15 colon = test system: HCT-15 colon
IGROV1 ovarian = test system: IGROV1 ovarian
SNB-19 CNS = test system: SNB-19 CNS
SNB-75 CNS = test system: SNB-75 CNS
UACC-257 melanoma = test system: UACC-257 melanoma
SW-620 colon = test system: SW-620 colon
NCI-H23 lung = test system: NCI-H23 lung
HOP-18 NSCLC = test system: HOP-18 NSCLC
OVCAR-5 ovarian = test system: OVCAR-5 ovarian
SNB-78 CNS = test system: SNB-78 CNS
DLD-1 colon = test system: DLD-1 colon
SK-MEL-28 melanoma = test system: SK-MEL-28 melanoma
RXF 393 renal = test system: RXF 393 renal
HOP-92 NSCLC = test system: HOP-92 NSCLC
OVCAR-3 ovarian = test system: OVCAR-3 ovarian
M19-MEL melanoma = test system: M19-MEL melanoma
LOX IMVI melanoma = test system: LOX IMVI melanoma
SK-OV-3 ovarian = test system: SK-OV-3 ovarian
KM12 colon = test system: KM12 colon
LXFL 529 NSCLC = test system: LXFL 529 NSCLC
TK-10 renal = test system: TK-10 renal
HL-60(TB) leukemia = test system: HL-60(TB) leukemia
RPMI-8226 leukemia = test system: RPMI-8226 leukemia
SR leukemia = test system: SR leukemia

Compound: COc1ccc(/C(=N/Nc2ccccc2)C(c2ccc(OC)cc2)C2OC(=O)c3ccccc32)cc1 (stereo unspecified)
- TGI (U251 CNS): > 100 µM
- TGI (ACHN renal): > 100 µM
- TGI (K-562 leukemia): > 100 µM
- TGI (UO-31 renal): > 100 µM
- TGI (MOLT-4 leukemia): > 100 µM
- TGI (CCRF-CEM leukemia): > 100 µM
- TGI (CAKI-1 renal): > 100 µM
- TGI (OVCAR-4 ovarian): > 100 µM
- TGI (SN12C renal): > 100 µM
- TGI (M14 melanoma): > 100 µM
- TGI (A549 NSCLC): > 100 µM
- TGI (NCI-H522 lung): > 100 µM
- TGI (UACC-62 melanoma): > 100 µM
- TGI (HCC-2998 colon): > 100 µM
- TGI (EKVX NSCLC): > 100 µM
- TGI (MALME-3M melanoma): > 100 µM
- TGI (SK-MEL-2 melanoma): > 100 µM
- TGI (SF-268 CNS): 91.8 µM
- TGI (A498 renal): > 100 µM
- TGI (NCI-H460 lung): > 100 µM
- TGI (786-0 renal): > 100 µM
- TGI (DMS 114 small cell lung): > 100 µM
- TGI (KM20L2 colon): > 100 µM
- TGI (COLO 205 colon): > 100 µM
- TGI (SF-539 CNS): > 100 µM
- TGI (SK-MEL-5 melanoma): > 100 µM
- TGI (OVCAR-8 ovarian): > 100 µM
- TGI (HOP-62 NSCLC): > 100 µM
- TGI (XF 498 CNS): > 100 µM
- TGI (HCT-116 colon): > 100 µM
- TGI (DMS 273 small cell lung): > 100 µM
- TGI (NCI-H226 lung): 65.8 µM
- TGI (HT29 colon): > 100 µM
- TGI (RXF-631 renal): > 100 µM
- TGI (SF-295 CNS): > 100 µM
- TGI (HCT-15 colon): > 100 µM
- TGI (IGROV1 ovarian): > 100 µM
- TGI (SNB-19 CNS): > 100 µM
- TGI (SNB-75 CNS): > 100 µM
- TGI (UACC-257 melanoma): > 100 µM

Compound: O=C(CC(=O)N1N=C(N2c3ccccc3Sc3ccccc32)CC1c1ccccc1)Nc1ccc(Cl)cc1 (stereo unspecified)
- TGI (SW-620 colon): > 100 µM
- TGI (U251 CNS): > 100 µM
- TGI (NCI-H23 lung): > 100 µM
- TGI (ACHN renal): > 100 µM
- TGI (HOP-18 NSCLC): > 100 µM
- TGI (UO-31 renal): > 100 µM
- TGI (CAKI-1 renal): > 100 µM
- TGI (OVCAR-4 ovarian): > 100 µM
- TGI (SN12C renal): > 100 µM
- TGI (M14 melanoma): > 100 µM
- TGI (A549 NSCLC): > 100 µM
- TGI (OVCAR-5 ovarian): > 100 µM
- TGI (SNB-78 CNS): > 100 µM
- TGI (DLD-1 colon): > 100 µM
- TGI (UACC-62 melanoma): > 100 µM
- TGI (HCC-2998 colon): > 100 µM
- TGI (SK-MEL-28 melanoma): > 100 µM
- TGI (EKVX NSCLC): > 100 µM
- TGI (MALME-3M melanoma): > 100 µM
- TGI (RXF 393 renal): > 100 µM
- TGI (HOP-92 NSCLC): > 100 µM
- TGI (SF-268 CNS): > 100 µM
- TGI (A498 renal): > 100 µM
- TGI (NCI-H460 lung): > 100 µM
- TGI (786-0 renal): > 100 µM
- TGI (DMS 114 small cell lung): > 100 µM
- TGI (KM20L2 colon): > 100 µM
- TGI (COLO 205 colon): > 100 µM
- TGI (SF-539 CNS): > 100 µM
- TGI (SK-MEL-5 melanoma): > 100 µM
- TGI (OVCAR-8 ovarian): > 100 µM
- TGI (HOP-62 NSCLC): > 100 µM
- TGI (XF 498 CNS): > 100 µM
- TGI (OVCAR-3 ovarian): > 100 µM
- TGI (HCT-116 colon): > 100 µM
- TGI (DMS 273 small cell lung): > 100 µM
- TGI (M19-MEL melanoma): > 100 µM
- TGI (LOX IMVI melanoma): > 100 µM
- TGI (SK-OV-3 ovarian): > 100 µM
- TGI (KM12 colon): > 100 µM
- TGI (HT29 colon): > 100 µM
- TGI (LXFL 529 NSCLC): > 100 µM
- TGI (SF-295 CNS): > 100 µM
- TGI (HCT-15 colon): > 100 µM
- TGI (IGROV1 ovarian): > 100 µM
- TGI (SNB-19 CNS): > 100 µM
- TGI (SNB-75 CNS): > 100 µM
- TGI (UACC-257 melanoma): > 100 µM
- TGI (TK-10 renal): > 100 µM

Compound: NCCNc1cccc2ccccc12
- TGI (SW-620 colon): > 100 µM
- TGI (U251 CNS): > 100 µM
- TGI (NCI-H23 lung): > 100 µM
- TGI (ACHN renal): > 100 µM
- TGI (HOP-18 NSCLC): > 100 µM
- TGI (UO-31 renal): > 100 µM
- TGI (CAKI-1 renal): > 100 µM
- TGI (OVCAR-4 ovarian): > 100 µM
- TGI (HL-60(TB) leukemia): > 100 µM
- TGI (SN12C renal): > 100 µM
- TGI (M14 melanoma): > 100 µM
- TGI (A549 NSCLC): > 100 µM
- TGI (OVCAR-5 ovarian): > 100 µM
- TGI (NCI-H522 lung): > 100 µM
- TGI (SNB-78 CNS): > 100 µM
- TGI (DLD-1 colon): > 100 µM
- TGI (UACC-62 melanoma): > 100 µM
- TGI (HCC-2998 colon): > 100 µM
- TGI (EKVX NSCLC): > 100 µM
- TGI (MALME-3M melanoma): > 100 µM
- TGI (RXF 393 renal): > 100 µM
- TGI (SK-MEL-2 melanoma): > 100 µM
- TGI (HOP-92 NSCLC): > 100 µM
- TGI (SF-268 CNS): > 100 µM
- TGI (A498 renal): > 100 µM
- TGI (NCI-H460 lung): > 100 µM
- TGI (786-0 renal): > 100 µM
- TGI (RPMI-8226 leukemia): > 100 µM
- TGI (DMS 114 small cell lung): > 100 µM
- TGI (KM20L2 colon): > 100 µM
- TGI (COLO 205 colon): > 100 µM
- TGI (SF-539 CNS): > 100 µM
- TGI (OVCAR-8 ovarian): > 100 µM
- TGI (SR leukemia): > 100 µM
- TGI (HOP-62 NSCLC): > 100 µM
- TGI (OVCAR-3 ovarian): > 100 µM
- TGI (HCT-116 colon): > 100 µM
- TGI (DMS 273 small cell lung): > 100 µM
- TGI (NCI-H226 lung): > 100 µM
- TGI (M19-MEL melanoma): > 100 µM
- TGI (LOX IMVI melanoma): > 100 µM
- TGI (SK-OV-3 ovarian): > 100 µM
- TGI (KM12 colon): > 100 µM
- TGI (HT29 colon): > 100 µM
- TGI (RXF-631 renal): > 100 µM
- TGI (LXFL 529 NSCLC): > 100 µM
- TGI (SF-295 CNS): > 100 µM
- TGI (HCT-15 colon): > 100 µM
- TGI (IGROV1 ovarian): > 100 µM
- TGI (SNB-19 CNS): > 100 µM
- TGI (UACC-257 melanoma): > 100 µM
- TGI (TK-10 renal): > 100 µM

Compound: CC(=O)O[C@H]1CCC(C)=CCC[C@@]2(C)C(CC[C@@H]2[C@@H](C)/C=C/C(C)C)c2ccc(cc2C(=O)O)C1 (stereo partly specified)
- TGI (U251 CNS): 8.25 µM
- TGI (NCI-H23 lung): 6.63 µM
- TGI (ACHN renal): 15.5 µM
- TGI (K-562 leukemia): 11.9 µM
- TGI (UO-31 renal): 9.82 µM
- TGI (MOLT-4 leukemia): 4.79 µM
- TGI (CCRF-CEM leukemia): 12.2 µM
- TGI (HL-60(TB) leukemia): 3.86 µM
- TGI (M14 melanoma): 20.3 µM
- TGI (OVCAR-5 ovarian): 8.43 µM
- TGI (NCI-H522 lung): 6.47 µM
- TGI (SNB-78 CNS): 10.1 µM
- TGI (UACC-62 melanoma): 3.79 µM
- TGI (SK-MEL-28 melanoma): 16.9 µM
- TGI (EKVX NSCLC): 30.5 µM
- TGI (RXF 393 renal): 7.67 µM
- TGI (HOP-92 NSCLC): 13.3 µM
- TGI (A498 renal): 19.8 µM
- TGI (NCI-H460 lung): 10.8 µM
- TGI (KM20L2 colon): 14.1 µM
- TGI (OVCAR-8 ovarian): 14 µM
- TGI (SR leukemia): 7.61 µM
- TGI (HOP-62 NSCLC): 7.49 µM
- TGI (HCT-116 colon): 11.9 µM
- TGI (DMS 273 small cell lung): 13.3 µM
- TGI (M19-MEL melanoma): 14 µM
- TGI (SK-OV-3 ovarian): 13.8 µM
- TGI (KM12 colon): 16.5 µM
- TGI (HT29 colon): 13.6 µM
- TGI (RXF-631 renal): 24.5 µM
- TGI (SF-295 CNS): 8.43 µM
- TGI (IGROV1 ovarian): 8.53 µM
- TGI (SNB-19 CNS): 13 µM
- TGI (UACC-257 melanoma): 14.8 µM
- TGI (TK-10 renal): 13.7 µM
